Counter-ions that a name gives are not always drawn.
Biological target: T1, CETP (Homo sapiens, UniProt P11597)
T1 construct: The donor lipoprotein obtained above was added to plasma of healthy subject; from tissue; host or cells: whole plasma of healthy subject
T1 sequence (P11597 18-493): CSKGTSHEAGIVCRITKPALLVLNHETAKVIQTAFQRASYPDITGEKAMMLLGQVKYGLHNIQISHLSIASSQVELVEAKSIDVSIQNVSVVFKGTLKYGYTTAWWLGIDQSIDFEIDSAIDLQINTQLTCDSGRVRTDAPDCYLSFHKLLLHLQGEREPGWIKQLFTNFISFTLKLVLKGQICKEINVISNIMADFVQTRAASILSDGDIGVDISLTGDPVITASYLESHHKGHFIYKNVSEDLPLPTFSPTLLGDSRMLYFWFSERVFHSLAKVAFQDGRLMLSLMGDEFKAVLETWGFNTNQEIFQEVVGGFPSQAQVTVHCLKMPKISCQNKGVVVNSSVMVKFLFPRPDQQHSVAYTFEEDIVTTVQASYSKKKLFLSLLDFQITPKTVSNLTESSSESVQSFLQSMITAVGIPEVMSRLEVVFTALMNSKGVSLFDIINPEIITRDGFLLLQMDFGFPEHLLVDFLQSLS
Test: Inhibitory effect in vitro on CETP activity in total plasma
Assay type: biochemical
Conditions: plasma of healthy subject with [3H]CE-HDL3, 37° C., 4 hr; average values
How it was run: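 Healthy-donor plasma spiked with [3H]cholesteryl ester-labelled HDL3 (1,000 dpm/μL) was incubated with compound (DMF vehicle) for 4 hr at 37 °C or 4 °C. HDL was separated by MgCl2/dextran sulfate precipitation and supernatant radioactivity counted. IC50 is the concentration giving 50% inhibition of CETP activity.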

Row | IC50 | Compound
1 | 760 nM | CCN(C[C@H]1CC[C@H](C(=O)O)CC1)c1cc2c(cc1CN(Cc1cc(C(F)(F)F)cc(C(F)(F)F)c1)c1nnn(CC)n1)CCC2 [Example 93, trans-4-{[N-(6-{[N′-[3,5-bis(trifluoromethyl)benzyl]-N′-(2-ethyl-2H-tetrazol-5-yl)amino]methyl}indan-5-yl)-N-ethylamino]methyl}cyclohexanecarboxylic acid hydrochloride]
2 | 530 nM | CCN(C[C@H]1CC[C@H](C(=O)O)CC1)c1cc2c(cc1CN(Cc1cc(C(F)(F)F)cc(C(F)(F)F)c1)c1nnn(CC)n1)CCCC2 [Example 99, trans-4-{[N-(3-{[N′-[3,5-bis(trifluoromethyl)benzyl]-N′-(2-ethyl-2H-tetrazol-5-yl)amino]methyl}-5,6,7,8-tetrahydronaphthalen-2-yl)-N-ethylamino]methyl}cyclohexanecarboxylic acid hydrochloride]
3 | 590 nM | CCN(CCC(C)(C)CC(=O)O)c1cc2c(cc1CN(Cc1cc(C(F)(F)F)cc(C(F)(F)F)c1)c1ccn(C)n1)CCC2 [Example 102, 5-[N-(6-{[N′-[3,5-bis(trifluoromethyl)benzyl]-N′-(1-methyl-1H-pyrazol-3-yl)amino]methyl}indan-5-yl)-N-ethylamino]-3,3-dimethylpentanoic acid]
4 | 430 nM | CCN(CCC(C)(C)CC(=O)O)c1cc2c(cc1CN(Cc1cc(C(F)(F)F)cc(C(F)(F)F)c1)c1noc(C)n1)CCC2 [Example 103, 5-[N-(6-{[N′-[3,5-bis(trifluoromethyl)benzyl]-N′-(5-methyl-[1,2,4]oxadiazol-3-yl)amino]methyl}indan-5-yl)-N-ethylamino]-3,3-dimethylpentanoic acid hydrochloride]
5 | 350 nM | CCN(CCC(C)(C)CC(=O)O)c1ccc(OC(F)(F)F)cc1CN(Cc1cc(C(F)(F)F)cc(C(F)(F)F)c1)c1nnn(C)n1 [Example 104, 5-[N-(2-{[N′-[3,5-bis(trifluoromethyl)benzyl]-N′-(2-methyl-2H-tetrazol-5-yl)amino]methyl}-4-trifluoromethoxyphenyl)-N-ethylamino]-3,3-dimethylpentanoic acid hydrochloride]
6 | 600 nM | CCN(CCC(C)(C)CC(=O)O)c1ccc(C(F)(F)F)cc1CN(Cc1cc(C(F)(F)F)cc(C(F)(F)F)c1)c1nnn(C)n1 [Example 105, 5-[N-(2-{[N′-[3,5-bis(trifluoromethyl)benzyl]-N′-(2-methyl-2H-tetrazol-5-yl)amino]methyl}-4-trifluoromethylphenyl)-N-ethylamino]-3,3-dimethylpentanoic acid hydrochloride]
7 | 190 nM | CCN(C[C@H]1CC[C@H](CC(=O)O)CC1)c1cc2c(cc1CN(Cc1cc(C(F)(F)F)cc(C(F)(F)F)c1)c1nnn(C)n1)CCC2 [Example 111, trans-(4-{[N-(6-{[N′-[3,5-bis(trifluoromethyl)benzyl]-N′-(2-methyl-2H-tetrazol-5-yl)amino]methyl}indan-5-yl)-N-ethylamino]methyl}cyclohexyl)acetic acid hydrochloride]
8 | 280 nM | CCN(CC(C)(C)CCC(=O)O)c1cc2c(cc1CN(Cc1cc(C(F)(F)F)cc(C(F)(F)F)c1)c1nnn(C)n1)CCC2 [Example 114, 5-[N-(6-{[N′-[3,5-bis(trifluoromethyl)benzyl]-N′-(2-methyl-2H-tetrazol-5-yl)amino]methyl}indan-5-yl)-N-ethylamino]-4,4-dimethylpentanoic acid hydrochloride]
9 | 130 nM | CCN(C[C@H]1CC[C@H](CO)CC1)c1ccc(OC(F)(F)F)cc1CN(Cc1cc(C(F)(F)F)cc(C(F)(F)F)c1)c1nnn(C)n1 [Example 119, trans-(4-{[N-(2-{[N′-[3,5-bis(trifluoromethyl)benzyl]-N′-(2-methyl-2H-tetrazol-5-yl)amino]methyl}-4-trifluoromethoxyphenyl)-N-ethylamino]methyl}cyclohexyl)methanol hydrochloride]
10 | 280 nM | CCN(CC(C)(C)CCCC(=O)O)c1cc2c(cc1CN(Cc1cc(C(F)(F)F)cc(C(F)(F)F)c1)c1nnn(C)n1)CCC2 [Example 120, 6-[N-(6-{[N′-[3,5-bis(trifluoromethyl)benzyl]-N′-(2-methyl-2H-tetrazol-5-yl)amino]methyl}indan-5-yl)-N-ethylamino]-5,5-dimethylhexanoic acid hydrochloride]
11 | 230 nM | CCCN(C[C@H]1CC[C@H](C(=O)O)CC1)c1ccc(OC(F)(F)F)cc1CN(Cc1cc(C(F)(F)F)cc(C(F)(F)F)c1)c1nnn(C)n1 [Example 121, trans-4-{[N-(2-{[N′-[3,5-bis(trifluoromethyl)benzyl]-N′-(2-methyl-2H-tetrazol-5-yl)amino]methyl}-4-trifluoromethoxyphenyl)-N-propylamino]methyl}cyclohexanecarboxylic acid hydrochloride]
12 | 240 nM | CC(C)CN(C[C@H]1CC[C@H](C(=O)O)CC1)c1ccc(OC(F)(F)F)cc1CN(Cc1cc(C(F)(F)F)cc(C(F)(F)F)c1)c1nnn(C)n1 [Example 122, trans-4-{[N-(2-{[N′-[3,5-bis(trifluoromethyl)benzyl]-N′-(2-methyl-2H-tetrazol-5-yl)amino]methyl}-4-trifluoromethoxyphenyl)-N-isobutylamino]methyl}cyclohexanecarboxylic acid hydrochloride]
13 | 370 nM | CCN(C[C@H]1CC[C@H](C(=O)O)CC1)c1ccc(OC(F)(F)F)cc1CN(Cc1cc(C(F)(F)F)cc(C(F)(F)F)c1)c1ccc(C)cc1 [Example 127, trans-4-{[N-(2-{[N′-[3,5-bis(trifluoromethyl)benzyl]-N′-(p-tolyl)amino]methyl}-4-trifluoromethoxyphenyl)-N-ethylamino]methyl}cyclohexanecarboxylic acid hydrochloride]
14 | 610 nM | CCN(C[C@H]1CC[C@H](C(=O)O)CC1)c1ccc(OC(F)(F)F)cc1CN(Cc1cc(Cl)cc(Cl)c1)c1nnn(C)n1 [Example 129, trans-4-{[N-(2-{[N′-(3,5-dichlorobenzyl)-N′-(2-methyl-2H-tetrazol-5-yl)amino]methyl}-4-trifluoromethoxyphenyl)-N-ethylamino]methyl}cyclohexanecarboxylic acid hydrochloride]
15 | 170 nM | CCN(C[C@H]1CC[C@H](C(=O)O)CC1)c1ccc(OC(F)(F)F)cc1CN(Cc1cc(Cl)cc(C(F)(F)F)c1)c1nnn(C)n1 [Example 131, trans-4-{[N-(2-{[N′-(3-chloro-5-trifluoromethylbenzyl)-N′-(2-methyl-2H-tetrazol-5-yl)amino]methyl}-4-trifluoromethoxyphenyl)-N-ethylamino]methyl}cyclohexanecarboxylic acid hydrochloride]
16 | 220 nM | CCN(C[C@H]1CC[C@H](CCC(=O)O)CC1)c1ccc(OC(F)(F)F)cc1CN(Cc1cc(C(F)(F)F)cc(C(F)(F)F)c1)c1nnn(C)n1 [Example 135, trans-3-(4-{[N-(2-{[N′-[3,5-bis(trifluoromethyl)benzyl]-N′-(2-methyl-2H-tetrazol-5-yl)amino]methyl}-4-trifluoromethoxyphenyl)-N-ethylamino]methyl}cyclohexyl)propionic acid hydrochloride]
17 | 140 nM | CCN(C[C@H]1CC[C@H](CC(=O)O)CC1)c1cc2c(cc1CN(Cc1cc(C(F)(F)F)cc(C(F)(F)F)c1)c1nnn(C)n1)OC(F)(F)C(F)(F)O2 [Example 137, trans-(4-{[N-(7-{[N′-[3,5-bis(trifluoromethyl)benzyl]-N′-(2-methyl-2H-tetrazol-5-yl)amino]methyl}-2,2,3,3-tetrafluoro-2,3-dihydrobenzo[1,4]dioxin-6-yl)-N-ethylamino]methyl}cyclohexyl)acetic acid hydrochloride]
18 | 160 nM | CCN(C[C@H]1CC[C@H](CC(N)=O)CC1)c1cc2c(cc1CN(Cc1cc(C(F)(F)F)cc(C(F)(F)F)c1)c1nnn(C)n1)OC(F)(F)C(F)(F)O2 [Example 138, trans-2-(4-{[N-(7-{[N′-[3,5-bis(trifluoromethyl)benzyl]-N′-(2-methyl-2H-tetrazol-5-yl)amino]methyl}-2,2,3,3-tetrafluoro-2,3-dihydrobenzo[1,4]dioxin-6-yl)-N-ethylamino]methyl}cyclohexyl)acetamide hydrochloride]
19 | 120 nM | CCN(C[C@H]1CC[C@H](CCO)CC1)c1ccc(OC(F)(F)F)cc1CN(Cc1cc(C(F)(F)F)cc(C(F)(F)F)c1)c1nnn(C)n1 [Example 140, trans-2-(4-{[N-(2-{[N′-[3,5-bis(trifluoromethyl)benzyl]-N′-(2-methyl-2H-tetrazol-5-yl)amino]methyl}-4-trifluoromethoxyphenyl)-N-ethylamino]methyl}cyclohexyl)ethanol hydrochloride]
20 | 120 nM | CCN(C[C@H]1CC[C@H](CO)CC1)c1cc(C(F)(F)F)c(C)cc1CN(Cc1cc(C(F)(F)F)cc(C(F)(F)F)c1)c1nnn(C)n1 [Example 141, trans-(4-{[N-(2-{[N′-[3,5-bis(trifluoromethyl)benzyl]-N′-(2-methyl-2H-tetrazol-5-yl)amino]methyl}-4-methyl-5-trifluoromethylphenyl)-N-ethylamino]methyl}cyclohexyl)methanol hydrochloride]

Row | Compound | IC50
21 | trans-4-{[N-(6-{[N′-(3-cyano-5-trifluoromethylbenzyl)-N′-(3-methylisoxazol-5-yl)amino]methyl}indan-5-yl)-N-ethylamino]methyl}cyclohexanecarboxylic acid hydrochloride [Example 54] | 790 nM
